Reference: patent US6525001B1, “Substituted pyrimidine and pyridine herbicides” (Mid-American Commercialization Corporation, priority 1997, dated 2003)

Columns and labels:
Format in all cases: in vivo
[1] = test system: sugarcane (Saccharum officinarum); assay: Test E pre-/postemergence/post directed; set-up: key: 0 is no injury; 100 is complete control
How it was run: (§1)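 Injury scored visually on a 0–100 scale (100 = complete control) 13 to 21 days after treatment. Test chemicals, formulated with surfactant in non-phytotoxic solvent, were applied to soil within one day of planting, to plants at two to four leaves (three to twenty cm), or as directed spray at plant base.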

[2] = test system: Russian thistle (Salsola kali); assay: Test E pre-/postemergence/post directed; conditions: PREEMERGENCE
How it was run: as §1

kochia (Kochia scoparia) = assay: Test E pre-/postemergence/post directed; set-up: key: 0 is no effect; 100 is complete control; conditions: PREEMERGENCE
How it was run: as §1

[3] = test system: Russian thistle (Salsola kali); assay: Test D; conditions: POSTEMERGENCE
How it was run: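 Compounds in a non-phytotoxic solvent with surfactant were applied; in the postemergence test, greenhouse plants were at the 1- to 4-leaf stage in 60:40 sandy loam/potting mix. After roughly 21–28 days, injury was rated visually against untreated controls on a 0–100 scale (100 = complete control).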

[4] = test system: field violet (Viola arvensis); assay: Test D; set-up: key: 0 is no effect; 100 is complete control; conditions: POSTEMERGENCE
Description: Compounds evaluated in this test were formulated in a non-phytotoxic solvent mixture which included a surfactant and applied to plants that were in the 1- to 4-leaf stage (postemergence application). A mixture of sandy loam soil and greenhouse potting mix in a 60:40 ratio was used for the postemergence test.
Plantings of these crops and weed species were adjusted to produce plants of appropriate size for the postemergence test. All plant species were grown using normal greenhouse practices. Crop and weed species include alfalfa (Medicago sativa), annual bluegrass (Poa annua), blackgrass (Alopecurus myosuroides), black nightshade (Solanum nigra), chickweed (Stellaria media), common poppy (Papaver rhoeas), deadnettle (Lamium amplexicaule), downy brome (Bromus tectorum), field violet (Viola arvensis), galium 2 (Galium aparine), green foxtail (Setaria viridis), Italian ryegrass (Lolium multiflorum), jointed goatgrass (Aegilops cylindrica), kochia (Kochia scoparia), lambsquarters (Chenopodium album), lentil (Lens culinaris), littleseed canarygrass (Phalaris minor), pea (Pisum sativum), potato (Solanum tuberosum), rape (Brassica napus), redroot pigweed (Amaranthus retroflexus), Russian thistle (Salsola kali), scentless chamomile (Matricaria inodora), sorghum (Sorghum vulgare), spring barley (Hordeum vulgare), sugar beet (Beta vulgaris), sunflower (Helianthus annuus), ivyleaf speedwell (Veronica hederaefolia), spring wheat (Triticum aestivum), winter wheat (Triticum aestivum), wild buckwheat (Polygonum convolvulus), wild mustard (Sinapis arvensis), wild oat (Avena fatua), windgrass (Apera spica-venti) and winter barley (Hordeum vulgare).
Treated plants and untreated controls were maintained in a greenhouse for approximately 21 to 28 days, after which all treated plants were compared to untreated controls and visually evaluated. Plant response ratings, summarized in Table D, are based upon a 0 to 100 scale where 0 is no effect and 100 is complete control. A dash response (−) means no test result.

[5] = test system: downy brome (Bromus tectorum); assay: Test D; set-up: key: 0 is no effect; 10 is complete control; conditions: PREEMERGENCE, Rate 62 g/ha
[6] = test system: Italian ryegrass (Lolium multiflorum); assay: Test D; set-up: key: 0 is no effect; 10 is complete control; conditions: PREEMERGENCE, Rate 62 g/ha
[7] = test system: pitted morningglory (Ipomoea lacunosa); assay: Test E pre-/postemergence/post directed; set-up: key: 0 is no injury; 100 is complete control; conditions: PREEMERGENCE
How it was run: as §1

[8] = test system: itchgrass (Rottboellia exaltata); assay: Test E pre-/postemergence/post directed; set-up: key: 0 is no injury; 100 is complete control; conditions: PREEMERGENCE
How it was run: as §1

[9] = test system: johnson grass (Sorghum halepense); assay: Test E pre-/postemergence/post directed; set-up: key: 0 is no injury; 100 is complete control; conditions: PREEMERGENCE
How it was run: as §1

[10] = test system: large crabgrass (Digitaria sanguinalis); assay: Test E pre-/postemergence/post directed; set-up: key: 0 is no injury; 100 is complete control; conditions: PREEMERGENCE, Rate 32 g/ha
How it was run: as §1

[11] = test system: common ragweed (Ambrosia elatior); assay: Test E pre-/postemergence/post directed; set-up: key: 0 is no injury; 100 is complete control; conditions: PREEMERGENCE, Rate 32 g/ha
How it was run: as §1

[12] = test system: surinam grass (Brachiaria decumbens); assay: Test E pre-/postemergence/post directed; set-up: key: 0 is no injury; 100 is complete control; conditions: PREEMERGENCE
How it was run: as §1

[13] = test system: wild buckwheat (Polygonum convolvulus); assay: Test D; set-up: key: 0 is no effect; 100 is complete control; conditions: PREEMERGENCE, Rate 125 g/ha
[14] = test system: Spanishneedles (Bidens bipinnata); assay: Test E pre-/postemergence/post directed; set-up: key: 0 is no injury; 100 is complete control; conditions: PREEMERGENCE
How it was run: as §1

[15] = test system: itchgrass (Rottboellia exaltata); assay: Test E pre-/postemergence/post directed; set-up: key: 0 is no effect; 100 is complete control; conditions: PREEMERGENCE
How it was run: as §1

Cc1cnc(-c2ccc(C(F)(F)F)cc2)nc1Cc1cccc(OC(F)(F)F)c1 [Compound 15]
Plant response rating, Sugarcane ([1]; PREEMERGENCE, Rate 32 g/ha): 0
Plant response rating, Sugarcane ([1]; PREEMERGENCE, Rate 64 g/ha): 0
Plant response rating, Sugarcane ([1]; PREEMERGENCE, Rate 125 g/ha): 10
Plant response rating, Sugarcane ([1]; PREEMERGENCE, Rate 250 g/ha): 10
Plant response rating, Russian thistle ([2]; Rate 32 g/ha): 70
Plant response rating, Russian thistle ([2]; Rate 64 g/ha): 90
Plant response rating, Russian thistle ([2]; Rate 125 g/ha): 95
Plant response rating, Russian thistle ([2]; Rate 250 g/ha): 95
Plant response rating, Kochia (kochia (Kochia scoparia); Rate 32 g/ha): 60
Plant response rating, Kochia (kochia (Kochia scoparia); Rate 64 g/ha): 75
Plant response rating, Kochia (kochia (Kochia scoparia); Rate 125 g/ha): 95
Plant response rating, Kochia (kochia (Kochia scoparia); Rate 250 g/ha): 100

CCc1cnc(-c2ccc(C(F)(F)F)cc2)nc1Cc1cccc(C(F)(F)F)c1 [Compound 22]
Plant response rating, Russian thistle ([3]; Rate 62 g/ha): 80
Plant response rating, Russian thistle ([3]; Rate 125 g/ha): 80
Plant response rating, Field violet ([4]; Rate 62 g/ha): 100
Plant response rating, Field violet ([4]; Rate 125 g/ha): 100
Plant response rating, Downy brome [5]: 0
Plant response rating, I. Ryegrass [6]: 0

COc1cnc(-c2ccc(C(F)(F)F)cc2)nc1Cc1cccc(C(F)(F)F)c1 [Compound 23]
Plant response rating, P. morninglory ([7]; Rate 32 g/ha): 0
Plant response rating, P. morninglory ([7]; Rate 64 g/ha): 0

Cc1cnc(-n2cnc(C(F)(F)F)c2)nc1Cc1cccc(C(F)(F)F)c1 [Compound 44]
Plant response rating, Itchgrass ([8]; Rate 32 g/ha): 0
Plant response rating, Itchgrass ([8]; Rate 64 g/ha): 0
Plant response rating, Johnsongrass ([9]; Rate 64 g/ha): 0
Plant response rating, Large crabgrass [10]: 0

CCc1cnc(-n2ccc(C(F)(F)F)n2)nc1Cc1cccc(C(F)(F)F)c1 [Compound 46]
Plant response rating, Com. ragweed [11]: 0
Plant response rating, Itchgrass ([8]; Rate 32 g/ha): 0
Plant response rating, Itchgrass ([8]; Rate 64 g/ha): 0
Plant response rating, Johnsongrass ([9]; Rate 32 g/ha): 0
Plant response rating, Johnsongrass ([9]; Rate 64 g/ha): 0
Plant response rating, Johnsongrass ([9]; Rate 125 g/ha): 0
Plant response rating, Johnsongrass ([9]; Rate 250 g/ha): 0
Plant response rating, Surinam grass ([12]; Rate 32 g/ha): 0
Plant response rating, Surinam grass ([12]; Rate 64 g/ha): 0

Cc1cnc(-n2ccc(C(F)(F)F)n2)nc1Cn1ccc(C(F)(F)F)n1 [Compound 52]
Plant response rating, Wild buckwheat [13]: 100

Cc1cnc(-n2cnc(C(F)(F)F)n2)nc1C(=O)c1cccc(C(F)(F)F)c1 [Compound 67]
Plant response rating, Spanishneedles ([14]; Rate 32 g/ha): 0
Plant response rating, Spanishneedles ([14]; Rate 64 g/ha): 0

Cc1cnc(-c2ccc(C(F)(F)F)cc2)nc1Cc1cccc(C(F)(F)F)c1 [Example 1, 5-methyl-2-[4-(trifluoromethyl)phenyl]-4-[[3-(trifluoromethyl)phenyl]methyl]pyrimidine]
Plant response rating, Russian thistle ([3]; Rate 16 g/ha): 40
Plant response rating, Russian thistle ([3]; Rate 62 g/ha): 60
Plant response rating, Russian thistle ([3]; Rate 125 g/ha): 50
Plant response rating, Field violet ([4]; Rate 16 g/ha): 20
Plant response rating, Field violet ([4]; Rate 31 g/ha): 100
Plant response rating, Field violet ([4]; Rate 62 g/ha): 100
Plant response rating, Field violet ([4]; Rate 125 g/ha): 80
Plant response rating, Kochia (kochia (Kochia scoparia); Rate 32 g/ha): 95
Plant response rating, Kochia (kochia (Kochia scoparia); Rate 64 g/ha): 100
Plant response rating, Kochia (kochia (Kochia scoparia); Rate 125 g/ha): 100

Cc1cnc(-n2ccc(C(F)(F)F)n2)nc1Cc1cccc(C(F)(F)F)c1 [Example 2, 5-methyl-4-[[3-(trifluoromethyl)phenyl]methyl]-2-[3-(trifluoromethyl)-1H-pyrazol-1-yl]pyrimidine]
Plant response rating, Sugarcane ([1]; POSTEMERGENCE, Rate 32 g/ha): 20
Plant response rating, Sugarcane ([1]; POSTEMERGENCE, Rate 64 g/ha): 20
Plant response rating, Sugarcane ([1]; POSTEMERGENCE, Rate 125 g/ha): 20
Plant response rating, Sugarcane ([1]; POSTEMERGENCE, Rate 250 g/ha): 25
Plant response rating, Sugarcane ([1]; POSTEMERGENCE, Rate 500 g/ha): 25
Plant response rating, Sugarcane ([1]; PREEMERGENCE, Rate 64 g/ha): 0
Plant response rating, Itchgrass ([15]; Rate 500 g/ha): 100

Cc1cnc(-c2ccc(C(F)(F)F)cc2)nc1Cn1ccc(C(F)(F)F)n1 [compound 9]
Plant response rating, Spanishneedles ([14]; Rate 32 g/ha): 0
Plant response rating, Surinam grass ([12]; Rate 32 g/ha): 0
Plant response rating, Itchgrass ([15]; Rate 32 g/ha): 100
Plant response rating, Itchgrass ([15]; Rate 125 g/ha): 100
Plant response rating, Itchgrass ([15]; Rate 250 g/ha): 100
